Experimental data reported in publication PMC11267363, “Supramolecular Nanofibers Ameliorate Bleomycin‐Induced Pulmonary Fibrosis by Restoring Autophagy” (Advanced Science, 2024).
Ends that are not written are not given here.

Experiments:
[1] = system: bleomycin-induced pulmonary fibrosis; experiment: Bleomycin model of pulmonary fibrosis, therapeutic treatment; assay type: in vivo, C57BL/6 mice; details: for survival rate: bleomycin 2 U kg−1 intratracheal, i.v. treatment from 7 days later, Ac-GFFY-A2 10 mg/kg, 21-day period, n = 16
Description: We further evaluated the anti‐fibrotic effect of Ac‐GFFY‐A2 peptide nanofibers in vivo. […] The observed reductions in fibrosis, collagen accumulation, and protein levels of Col 1 and α‐SMA strongly support the efficacy of Ac‐GFFY‐A2 in combating fibrotic processes, confirming that the peptide nanofibers as a TRB3/p62 PPIs modulator with a potent anti‐fibrotic activity.
C57BL/6 mice were intratracheally administered with bleomycin at a dose of 2 U kg^−1 body weight as previously described.^[ [11a] ^]
Hydroxyproline content of the right lung of each mouse was measured using a conventional hydroxyproline method as previously described.^[ [30] ^]
The left lungs cleared of blood were inflated with 10% neutral buffered formalin and fixed overnight. Then the tissues were embedded in paraffin and sectioned. The 5‐µm sections were stained with H&E and Masson trichrome according to the manufacturer`s instructions (Sigma–Aldrich). Immunohistochemistry was performed as previously described.^[ [30] ^] The antibodies specific for α‐SMA and Collagen I were used for staining.

[2] = Self-assembly in saline buffer (Tyndall path, TEM nanostructure); assay type: physicochemical
Description: To verify our hypothesis, we utilized the self‐assembling factor (Acetyl‐Gly‐Phe‐Phe‐Tyr, Ac‐GFFY) to regulate the secondary conformation of A2 peptide (GGWLTRLLQTK) from p62 UBA domain binding with TRB3.^[ [16] ^] The self‐assembling factor Ac‐GFFY was covalently attached to the N‐terminal of peptide A2 to introduce Ac‐GFFY‐A2 (Figure 2a) as a modulator of the TRB3/p62 PPIs, non‐self‐assembling peptide A2 as the control group. Both of those peptide compounds were synthesized by standard solid phase peptide synthesis (SPPS), purified by reversed‐phase high‐performance liquid chromatography (HPLC), and identified through the high‐resolution mass spectrometry (HR‐MS, Figures S4 and S5, Supporting Information). The 0.5 wt% of peptide Ac‐GFFY‐A2 could observe an obvious “Tyndall path” in saline buffer (0.9% NaCl) after the heating‐cooling process (Figure S13, Supporting Information), compared with peptide A2 solution (0.5 wt%, saline buffer). The critical aggregation concentration (CAC) of those compounds was detected by dynamic light scattering. […] Furthermore, a transmission electron microscope (TEM) was used to observe the nanostructures formed by different compounds. Ac‐GFFY‐A2 could self‐assemble and form entangled nanofibers with a diameter of 8–12 nm (Figure 2b).
Transmission electron microscopy (TEM)
The samples (0.5 wt%, 10 μL) were loaded onto copper mesh coated with carbon.
After excess liquid was removed by a filter paper, 2% uranium acetate was used for dyeing the sample for 1 minute and the sample was dried overnight in a dryer. The samples were then imaged at 200 kV using a Tecnai G2 F20 system.
Circular dichroism (CD) spectrum
A BioLogic (MOS-450) system was used to record the circular dichroism spectrum.
Test wavelengths was in the range from 180 nm to 280 nm. […]
The CAC values were determined by dynamic light scattering (DLS). Solutions containing different concentration of compound in saline buffer were tested and the light scattering intensity was recorded for each concentration analyzed. […]

| Substance | survival rate [1] | nanostructure in TEM image ([2]; 0.5 wt%, saline buffer, TEM) | quantification of fibrotic left lung sections (lung fibrotic score) ([1]; bleomycin mice, i.v. treatment, H&E, compared to saline or A2) | body weight ([1]; bleomycin mice, i.v. treatment, average body weight curve) | hydroxyproline content ([1]; bleomycin mice, i.v. treatment, bleomycin challenge alone ≈480) | Tyndall path ([2]; 0.5 wt% in saline buffer (0.9% NaCl) after heating-cooling process) | diameter of entangled nanofibers (TEM) ([2]; 0.5 wt% in saline buffer after heating-cooling process, TEM) |
| --- | --- | --- | --- | --- | --- | --- | --- |
| GGWLTRLLQTK-OH [A2, reference compound] | 62.50% | amorphous structures |  |  |  |  |  |
| Ac-GFFYGGWLTRLLQTK-OH [Ac-GFFY-A2] | 68.75% |  | significant decrease in fibrosis | partial recovery from the body weight loss | ≈ 280 µg per right lung tissue | obvious | 8–12 nm |
